According to patent US20020082291A1, “NEW USE OF TAXOID DERIVATIVES” (priority 1999, published 2002):

Test system: mammary adenocarcinoma MA17/A
Assay: Oral antitumor efficacy and toxicity against early stage mammary adenocarcinoma MA17/A grafted subcutaneously in mice
Assay type: in vivo
Details: for log cell kill: tumor doubling time 1.3 days
Protocol: Formulation II: 0.2 mg/ml of the compound of formula (la) was mixed in a solution comprising 5% ethanol, 5% Polysorbate 80, and 90% of an aqueous 5% glucose solution.
15 female C3H/HeN mice, each weighing approximately 20 g, were each administered Formulation II orally in a dose of 20.6 mg.kg^−1 per administration per mouse,12.8, 8.4 and 5.5 each day for 5 days.
Animals: The animals subjected to the experiment, generally mice, were subcutaneously grafted bilaterally with 30 to 60 mg of a mammary tumor fragment (adenocarcinoma MA17/A) on day 0. The animals bearing tumors were mixed before being assigned to the various treatment and control groups. Chemotherapy generally began from 3 to 7 days after grafting, depending on the type of tumour, and the animals were observed every day. The different animal groups were weighed 3 or 4 times a week until the maximum weight loss was attained, and the groups were then weighed at least once a week until the end of the trial.
Efficacy: The efficacy of the new pharmaceutical form was evaluated by:
the tumor growth inhibitor (T/C)
The T/C value in percent is an indication of antitumor effectiveness: [formula]
According to NCI standards, a T/C<42% is the minimal level to declare activity. A T/C<10% is considered to indicate high antitumor activity and is the level used by NCI to justify further development (Decision Network-2 level, DN-2).
The T/C value can be converted to an arbitrary activity rating according to the NCI criteria:
and quantified by the log cell kill which is determined by the following formula:
log10 cells killed=T−C(days)/3.32×Td
in which T−C represents the time in days for the tumors of the treated group (T) and the tumors of the non-treated group (C) to reach a predetermined value (750 mg for example). This method is described in T. H. CORBETT et al., Cancer, 40, 2660-2680 (1977); F.M. SCHABEL et al., Cancer Drug Development, Part B. Methods in Cancer Research, 17, 3-51, New York Academic Press Inc. (1979), the disclosure of which is incorporated by reference herein. A product is considered to be active if log10 cells killed is greater than or equal to 0.7. A product is considered to be very active if log10 cells killed is greater than 2.8.

[1] = p.o. 5.5 mg/kg/dose, days 3 to 7, total dose 27.5 mg/kg
[2] = p.o. 8.4 mg/kg/dose, days 3 to 7, total dose 42.0 mg/kg
[3] = p.o. 12.8 mg/kg/dose, days 3 to 7, total dose 64.0 mg/kg

CO[C@H]1C(=O)[C@]2(C)[C@@H](OC)C[C@H]3OC[C@@]3(OC(C)=O)[C@H]2[C@H](OC(=O)c2ccccc2)[C@]2(O)C[C@H](OC(=O)[C@H](O)[C@@H](NC(=O)OC(C)(C)C)c3ccccc3)C(C)=C1C2(C)C [Product of formula IA, 4α-acetoxy-2α-benzoyloxy-5β,20-epoxy-1β-hydroxy-7β,10β-dimethoxy-9-oxo-11-taxen-13α-yl (2R, 3S)-3tert-butoxycarbonylamino-2-hydroxy-3-phenylpropionate]
Comments [1]: Inactive | Drug death (days or death) [1]: 0/5 | T-C [1]: 2.3 days | Time for median tumor to reach 750 mg [1]: 14.4 days | Average body weight change in % per mouse post last treatment (day) (p.o. 5.5 mg/kg/dose, days 3 to 7, total dose 27.5 mg/kg, day 8): +0.2(8) % | Median tumor weight in mg on day 12 (range) [1]: 271(107-432) mg | T/C in % day 12 [1]: 38% | log cell kill [1]: 0.5 | Comments [2]: Active | Drug death (days or death) [2]: 0/5 | T-C [2]: 6.1 days | Time for median tumor to reach 750 mg [2]: 18.2 days | Average body weight change in % per mouse post last treatment (day) (p.o. 8.4 mg/kg/dose, days 3 to 7, total dose 42.0 mg/kg, day 9): −11.0(9) % | Median tumor weight in mg on day 12 (range) [2]: 0(0-268) mg | T/C in % day 12 [2]: 0% | log cell kill [2]: 1.4 | Comments [3]: HNTD | Drug death (days or death) [3]: 0/5 | T-C [3]: 13.8 days | Time for median tumor to reach 750 mg [3]: 25.9 days | Average body weight change in % per mouse post last treatment (day) (p.o. 12.8 mg/kg/dose, days 3 to 7, total dose 64.0 mg/kg, day 10): −17.9(10) % | Median tumor weight in mg on day 12 (range) [3]: 0(0-0) mg | T/C in % day 12 [3]: 0% | log cell kill [3]: 3.2 | Comments (p.o. 20.6 mg/kg/dose, days 3 to 7, total dose 103.0 mg/kg): Toxic | Drug death (days or death) (p.o. 0.2 ml, 20.6 mg/kg/dose, days 3 to 7, total dose 103.0 mg/kg, female C3H/HeN mice): 5/5(7,2d8,10,11)
